Experimental data from patent US11478469B2, “Combination product of BCL-2 inhibitor and MDM2 inhibitor and use thereof in the prevention and/or treatment of diseases” (ASCENTAGE PHARMA (SUZHOU) CO., LTD., priority 2018, dated 2022).

Assays:
[1] = test system: OCI-AML-3 (acute myeloid leukemia (AML)); test: CellTiter-Glo (CTG) cell proliferation assay, OCI-AML-3; format: cell-based; settings: Homo sapiens; OCI-AML-3, single agent alone, 24 hours; read-out: IC50 for inhibition of proliferation
Protocol: Anti-proliferative effects were tested by CellTiter-Glo® (CTG) assay. Cells were seeded in 96-well plates and treated with different concentrations of test substance for 24 hours. […] Each test dose was tested with 3 replicate wells. Usually, 9 series of doses of the test substance were selected, and added to 96-well plates, 5 μl/well. For the combination experiment, the final volume of the two test substances was 5 μl/well. Each test dose was tested with 3 replicate wells. On the same plate, 3-6 wells were selected and added with 100 μl of dilution solution as a control group, and another 3-6 wells were used as a blank control. […] After mixing on a shaker for 2 minutes, leaving at room temperature for 10 minutes, the fluorescence value was read by using a Biotek synergy HIMF plate reader. […] For the combination test, the cell viability was calculated by normalizing the average OD value of 3 duplicate wells of the single drug control. […] Cell viability (%) values of Compound 6 alone and the combination of Compound 6 and APG-115 in the following malignant tumor cells were determined in the CTG experiment: OCI-AML-3 (acute myeloid leukemia (AML)), MV-4-11 (acute myeloid leukemia (AML)), KMS-26 (multiple myeloma (MM)), KMS-11 (multiple myeloma (MM)).

[2] = test system: human MV-4-11 AML xenograft; test: MV-4-11 AML xenograft in Balb/c nude mice; format: in vivo, mouse; settings: for Response rate @D 22: mPD (progressive disease) / Best response rate: mPD (progressive disease): compound 6 100 mg/kg and/or APG-115 100 mg/kg, mice per group; for Response rate @D 22: mPD (progressive disease) / RTV @ D 22 / T/C (%) @ D 22: day 22; for RTV @ D 22 / T/C (%) @ D 22: compound 6 100 mg/kg p.o. qd×22 d and/or APG-115 100 mg/kg orally daily d1-7 and d16-22
Description: (§1) A subcutaneous xenograft tumor model of human tumor immunodeficient mice was established by cell inoculation (see: Gould S E et al. Translational value of mouse models in oncology drug development. Nature medicine. 2015 21, 431-439; and, Souers A J et al. ABT-199, a potent and selective BCL-2 inhibitor, achieves antitumor activity while sparing platelets. Nature medicine. 2012 19.202-208): tumor cells in logarithmic growth phase were collected, counted and resuspended in 1×PBS, and the cell suspension concentration was adjusted to 2.5-5×10^7/mL. Using a 1 mL syringe ([…]), the tumor cells were inoculated subcutaneously in the right side of immunodeficient mice, 5-10×106/0.2 mL/mouse (experimental animals were purchased from Beijing Vital River Laboratory Animal Technology Co., Ltd. SCXK (Beijing) 2016-0006). All animal experiments were strictly in accordance with the laboratory animal use and management practices of GenePharma Co., Ltd. and Ascentage Pharma Group Co., Ltd. The calculation of relevant parameters referred to the Chinese CFDA “Guidelines for Non-Clinical Research Techniques of Cytotoxic Antitumor Drugs”.
(§2) Animal body weight and tumor size were measured twice a week during the experiment. The conditions and death of the animals were observed every day. Routine monitoring included the effects of tumor growth and treatment on normal animal behaviors, including activity, feeding and drinking situations, weight gain or loss, eyes, coat and other abnormalities in the experimental animals. The deaths and clinical symptoms observed during the experiment were recorded in the raw data. The entire operations of administration, measurement of mouse body weight and tumor volume were performed in a clean bench. Plasma and tumor tissues were collected, weighed and photographed after the end of the last administration according to the experimental protocol. Plasma and tumor samples were frozen and stored at −80° C.
(§3) Tumor volume (TV) was calculated as: TV=a×b2/2, in which a and b represented the length and width of the tumor as measured, respectively. The relative tumor volume (RTV) was calculated as: RTV=Vt/V1, in which V1 was the tumor volume at the time of grouping and administration, and Vt was the tumor volume measured on a day after administration. The evaluation index of anti-tumor activity was the relative tumor proliferation rate T/C (%), which was calculated as: relative tumor proliferation rate T/C (%)=(TRTV/CRTV)×100%, in which TRTV was the RTV of the treatment group, CRTV was the RTV of the vehicle control group; tumor remission rate (%) was calculated as: (the number of SD (stable disease), PR (tumor partial regression) and CR (tumor complete regression) in the tumor-bearing mice after treatment)/the total number of mice in the group×100%. Change of body weight %=(measured body weight−body weight at the time of grouping)/body weight at the time of grouping×100%.
(§4) The synergistic analysis was performed by the following formula (Gould S E et al. Translational value of mouse models in oncology drug development. Nature medicine. 2015 21, 431-439): synergy factor=((A/C)×(B/C))/(AB/C); A=RTV value of the group administered with A only; B═RTV value of the group administered with B only; C=RTV value of the vehicle control group; AB=RTV value of the group administered with A and B in combination (Clarke R. Issues in experimental design and endpoint analysis in the study of experimental cytotoxic agents in vivo in breast cancer and other models [J]. Breast Cancer Research & Treatment, 1997, 46(2-3): 255-278).
(1) The experimental method was as described in Section (2) of Example 1. Compound 6 is a selective BCL-2 inhibitor developed by the Ascentage Pharma Group. The agent is currently under clinical development for cancer therapy both in China and in the US. Enhanced anti-proliferation activity of APG-115 in combination with compound 6 has been observed in cell-based assay in AML cell lines in vitro. […]

[3] = test system: human OCI-AML-3 (AML) mouse xenograft tumor; test: Human OCI-AML-3 AML mouse xenograft tumor model; format: in vivo; settings: for antitumor effect in words: 11 days of administration, Compound 6 25 or 100 mg/kg qd, APG-115 100 mg/kg (d1-d4) and 50 mg/kg (d5-d11) q2d
Description: as §1, §2, §3, §4
(1) The experimental method was as described in Section (2) of Example 1. […] Therefore, a mouse xenograft tumor model was further established using the OCI-AML-3 tumor cell line to evaluate the in vivo anti-tumor effects of Compound 6 and APG-115. […]

[4] = APG-115 50 mg/kg alone (text: 100 mg/kg d1-d4, 50 mg/kg d5-d11, q2d)
[5] = Compound 6 25 mg/kg qd, alone or with APG-115 50 mg/kg
[6] = Compound 6 100 mg/kg qd, alone or with APG-115 50 mg/kg

Row | SMILES | IC50 [1] [µM] | Response rate @D 22: mPD (progressive disease) [2] | Best response rate: mPD (progressive disease) [2] | RTV @ D 22 [2] | T/C (%) @ D 22 [2] [%] | antitumor effect in words [3] | RTV on day 11 after administration [3, 4] | T/C (%) value on day 11 after administration [3, 4] [%] | RTV on day 11 after administration [3, 5] | T/C (%) value on day 11 after administration [3, 5] [%] | RTV on day 11 after administration [3, 6] | T/C (%) value on day 11 after administration [3, 6] [%]
1 | CCN1[C@@H](C(=O)NC23CCC(C(=O)O)(CC2)CC3)[C@H](c2cccc(Cl)c2F)[C@]2(C(=O)Nc3cc(Cl)ccc32)C12CCCCC2 [APG-115] | 2.37 | 6/6 mPD | 6/6 mPD | 9.2 ± 2.3 | 67.1 | did not exhibit tumor growth inhibition | 12.5 ± 2.5 | 69 |  |  |  | 
2 | O=C(NS(=O)(=O)c1ccc(NC[C@H]2COCCO2)c([N+](=O)[O-])c1)c1ccc(N2CCN(CC3=C(c4ccc(Cl)cc4)CC4(CCC4)CC3)CC2)cc1Oc1cnc2[nH]ccc2c1 [Compound 6, (S)-N-((4-(((1,4-dioxan-2-yl)methyl)amino)-3-nitrophe-nyl)sulfonyl)-2-((1H-pyrrolo[2,3-b]pyridin-5-yl)oxy)-4-(4-((6-(4-chlorophenyl)spiro[3.5]non-6-en-7-yl)meth-yl)piperazin-1-yl)benzamide] | 10.2 | 6/6 mPD | 6/6 mPD | 7.5 ± 0.9 | 55.1 | did not exhibit tumor growth inhibition |  |  | 16.2 ± 2.3 | 90 | 13.0 ± 1.9 | 72
